Assay results taken from PMC11357992, “Non-invasive mapping of systemic neutrophil dynamics upon cardiovascular injury” (Nature Cardiovascular Research, 2023).
Several values for one entry are separate records, joined by “and”; a condition that tells them apart may be missing. Equal entries are not always repeated. Where no end group is shown, it is not given here. Side-chain parts run from the residue outwards. rhodamine‑labelled PEGylated perfluoro‑15‑crown‑5 ether nanoemulsion = not defined here; carboxyfluorescein = N-terminal fluorescence label (CF)

How the values were obtained:
[1] = system: neutrophils from explanted failing human hearts; assay: hNPPFC uptake by neutrophils from explanted human hearts, flow cytometry; format: cell-based; details: 10 µl hNPPFCs, 30 min, 37 °C
Description: During orthotopic heart-transplant surgery in patients suffering from terminal heart failure, a tissue specimen of about ~5 g was excised from the apex of the failing heart immediately after explantation. Tissues were immediately transferred to iced BIOPS buffer as described previously. For subsequent isolation of immune cells, heart samples were cut into small pieces and digested with the Multi Tissue Dissociation Kit 2 (Miltenyi; ‘adult rat heart’ protocol) by incubating for 40 min at 37 °C with the specified enzyme mix using the 37C_Multi_G program by gentleMACS. Afterward, 7.5 ml DMEM with 20% FCS was added to stop enzymatic digestion. The sample was applied to a 70-µm cell filter and washed with 3 ml DMEM, followed by centrifugation for 5 min at 300g. The supernatant was discarded, and cells were resuspended in 1 ml DMEM and incubated with 10 µl ^hNPPFCs for 30 min at 37 °C on a vertical shaker. Afterward, cells were washed twice with MACS buffer and stained for CD45, CD11b and CD66b. DAPI staining was performed for exclusion of dead cells. The uptake of ^hNPPFCs into neutrophils (CD45^+CD11b^+CD66b^+) was determined by flow cytometry.

murine neutrophils [2] = assay: ROS production of murine neutrophils after mNPPFC injection (dihydroethidium, UPLC); format: in vivo, mouse; details: in the presence of the targeting PFCs
Description: […] per kg BW ^mNPPFCs or saline were injected i.v., and, 2 h later, neutrophils were isolated from the bone marrow, and extracellular ROS was measured in the cell supernatant by oxidation of dihydroethidium followed by UPLC analysis.
A total of 5 × 10^6 human neutrophils were incubated in 10 ml DMEM with or without 1 µg ml^−1 peptide or 50 µl ml^−1 emulsion. At distinct time points, cells were pelleted, and 1 ml of the supernatant was immediately frozen at −80 °C. Subsequently, the amount of ROS was determined by chemiluminescence analysis. […] After centrifugation, 80 µl supernatant was used to determine ROS by UPLC measurement (Waters Acquity Bio H-Class with 2475 FLD Detector). To this end, gradients A and B (0.1% trifluoroacetic acid in 1 l water and acetonitrile, respectively) at a flow rate of 0.26 ml min^−1 at 17 °C were used. Dihydroethidium was excited and detected at 480 nm and 580 nm, respectively.
(§1) Extended Data Fig. 9 Impact of ^mNPPFCs on murine neutrophils. a, Differentially expressed genes (DEGs) identified by bulk RNA sequencing of murine blood neutrophils after intravenous injection of ^mNPPFCs, ^ConPFCs or NaCl (Ctrl) as control. […] In total 25655 RNA transcripts were analyzed. b, Cell surface expression of CD11b, CD62L, CD63 on blood derived murine neutrophils after intravenous application of NaCl (Ctrl) or ^mNPPFCs. […]

murine neutrophils [3] = assay: Migration of murine neutrophils into Matrigel/LPS plug after mNPPFC injection; format: in vivo, mouse; details: in the presence of the targeting PFCs
Description: […] per kg BW ^mNPPFCs or saline were injected i.v., and, after 1 h, LPS-doped Matrigel was implanted s.c. into the neck of mice. After 2 h, the Matrigel plug was excised, and infiltrated neutrophils were isolated and stained with anti-CD11b and anti-Ly6G antibodies for flow cytometry.
A total of 1 × 10^6 isolated human neutrophils were incubated with or without 50 µl ^hNPPFCs for 1 h at 37 °C in 1 ml DMEM. After washing with DMEM, 1 × 10^5 of these cells were placed in a Boyden chamber containing 200 µl DMEM. The lower part of the chamber contained 100 ng ml^−1 IL-8 in 1 ml DMEM. After 1 h in an incubator, the flow through was collected, and the number of neutrophils was counted by flow cytometry. Murine neutrophils were isolated from Matrigel–LPS plugs and stained for Ly6G. Afterward, cells were washed twice, and the number of neutrophils was determined by flow cytometry.
as §1

bone marrow neutrophils = assay: In situ labeling of bone marrow neutrophils and tracking after MI, 1H/19F MRI of bone marrow; format: in vivo, mouse; details: Depletion of neutrophils by Ly6G Ab injection 48 and 24 h prior to mNPPFC injection; 24 h after injection; individual experiments
[4] = system: circulating lymphocytes, monocytes and neutrophils; assay: In vivo mNPPFC uptake by circulating immune cells 1 h after injection (Matrigel-LPS or PBS); set-up: species or system mouse; in vivo uptake by circulating lymphocytes, Ctrl, raw data / in vivo uptake by circulating lymphocytes, LPS, raw data / in vivo uptake by circulating monocytes, Ctrl, raw data / in vivo uptake by circulating monocytes, LPS, raw data / in vivo uptake by circulating neutrophils, Ctrl, raw data / in vivo uptake by circulating neutrophils, LPS, raw data: unit not given here
Description: To induce defined inflammatory foci, we adopted a recently developed model of localized subcutaneous inflammation. To this end, ice-cold Matrigel (Corning) was doped with LPS (1 µg µl^−1; Salmonella typhimurium, Sigma-Aldrich) and subcutaneously (s.c.) implanted into the neck of the mice. Twenty-four hours after implanting the plug, neutrophils were isolated from the blood and incubated ex vivo with ^mNPPFCs or ^ConPFCs. In separate experiments, 24 h after implantation, ^mNPPFCs or ^ConPFCs were injected intravenously, and immune cells were isolated from the blood. In further experiments, 1 d after plug injection, mice received 1 mmol per kg BW ^mNPPFCs, and, 24 h later, the bone marrow was analyzed by ^1H/^19F MRI. Thereafter, mice were killed, and neutrophils were isolated from the bone marrow for determination of cell numbers. In each case, immune cells were analyzed by flow cytometry.
Mice were kept in anesthesia (1.5% isoflurane) on a warming plate, and 1 mmol per kg BW ^mNPPFCs or ^ConPFCs were injected i.v. into the tail vein. One hour after injection, blood was collected from the vena cava, and immune cells were isolated. For in vivo uptake studies in the bone marrow, mice were treated as described above and killed 2 h later to isolate neutrophils from the bone marrow and analyzed by flow cytometry.

[5] = mouse, Ctrl (PBS), 1 h after injection, single animals #1-#5
[6] = mouse, Matrigel-LPS, 1 h after injection, single animals #1-#3

For “hNPPFCs: PEGylated rhodamine-labeled perfluorocarbon nanoemulsion coupled with human neutrophil-specific peptide hNP (carboxyfluorescein-DLVTSKLQVGGGC; also: C-terminal Cys coupled via maleimide-PEG2000-DSPE to rhodamine-labelled perfluorocarbon nanoemulsion)”, the “labeling of neutrophils freshly isolated from explanted failing human hearts” value [1] was “could be labeled”.

“mNPPFCs: PEGylated rhodamine-labeled perfluoro-15-crown-5 ether nanoemulsion (maleimide PFCs) coupled with murine neutrophil-specific peptide mNP (carboxyfluorescein-DFYKPMPNLRITGGGC([maleimide‑PEG2000‑DSPE-rhodamine‑labelled PEGylated perfluoro‑15‑crown‑5 ether nanoemulsion]); reading uncertain; also: printed as DFYKPMPNLRIT-GGG-C)” was tested, and the “ROS production of murine neutrophils” value (murine neutrophils [2]) was “unaltered”, the “migration of murine neutrophils” value (murine neutrophils [3]) was “unaltered” and the “19F signal within the femur and tibia (bone marrow)” value (bone marrow neutrophils) was 519273 and 821555 and 523902 and 983614 and 347032. The “incorporation into circulating neutrophils from LPS-challenged versus healthy mice” value ([4]; 1 h after intravenous application) was “much stronger”, the “in vivo uptake by circulating lymphocytes, Ctrl, raw data” value [4, 5] was 51.1 and 39.2 and 30.6 and 43.1 and 40.6 and the “in vivo uptake by circulating monocytes, Ctrl, raw data” value [4, 5] was 176 and 127 and 129 and 184 and 145. The “in vivo uptake by circulating neutrophils, Ctrl, raw data” value [4, 5] was 400 and 394 and 676 and 677 and 545, the “in vivo uptake by circulating lymphocytes, LPS, raw data” value [4, 6] was 38.8 and 38.9 and 26.2 and the “in vivo uptake by circulating monocytes, LPS, raw data” value [4, 6] was 150 and 223 and 453. For the same substance, the “in vivo uptake by circulating neutrophils, LPS, raw data” value [4, 6] was 3695 and 4794 and 6465.
